Measured values published in ChEMBL document CHEMBL2417443, “Efficient synthesis and antiproliferative activity of novel thioether-substituted flavonoids” (Eur J Med Chem, 2013).

Tests used:
Format in all cases: functional, cell-based
MCF7 = assay: Cytotoxicity against human MCF7 cells after 72 hrs by MTT assay; settings: MCF7, 72 h
HeLa = assay: Cytotoxicity against human HeLa cells after 72 hrs by MTT assay
SW480 = assay: Cytotoxicity against human SW480 cells after 72 hrs by MTT assay; settings: SW480, 72 h
[1] = Cytotoxicity against human LM7 cells after 72 hrs by MTT assay; settings: LM7, 72 h
[2] = Cytotoxicity against human MDA-MB-435S cells after 72 hrs by MTT assay
HEp-2 = assay: Cytotoxicity against human Hep2 cells after 72 hrs by MTT assay; settings: HEp-2, 72 h

Row | Structure (SMILES) | IC50 (MCF7) | IC50 (HeLa) | IC50 (SW480) | IC50 [1] | IC50 [2] | IC50 (HEp-2)
1 | O=c1c2ccccc2ncn1CSc1nc2ccccc2s1 | > 25 µM | > 25 µM | > 25 µM | > 25 µM | > 25 µM | > 25 µM
2 | Cc1cc(C)n2nc(SCc3nnc(SCc4cc(=O)c5ccccc5o4)o3)nc2n1 | > 25 µM | > 25 µM | > 25 µM | > 25 µM | > 25 µM | > 25 µM
3 | Cc1cc(C)nc(SCc2cc(=O)c3cc(Cl)ccc3o2)n1 | > 25 µM | > 25 µM | > 25 µM | > 25 µM | > 25 µM | > 25 µM
4 | O=c1cc(CSc2nc3ccccc3s2)oc2ccc(Cl)cc12 | > 25 µM | > 25 µM | > 25 µM | > 25 µM | > 25 µM | > 25 µM
5 | Cc1ccc2oc(CSc3nc4ccccc4s3)cc(=O)c2c1 | > 25 µM | > 25 µM | > 25 µM | > 25 µM | > 25 µM | > 25 µM
6 | Cc1nnc(SCc2cc(=O)c3ccccc3o2)o1 | > 25 µM | > 25 µM | > 25 µM | > 25 µM | > 25 µM | > 25 µM
7 | Cc1cc(C)n2nc(SCc3nnc(SCc4cc(=O)c5ccccc5o4)s3)nc2n1 | > 25 µM | > 25 µM | > 25 µM | > 25 µM | > 25 µM | > 25 µM
8 | O=c1cc(CSc2nc3ccccc3s2)oc2ccccc12 | > 25 µM | > 25 µM | > 25 µM | > 25 µM | > 25 µM | > 25 µM
9 | Nc1nnc(SCc2coc3ccccc3c2=O)s1 | > 25 µM | > 25 µM | > 25 µM | 0.73 µM | 0.95 µM | 1.5 µM
10 | O=c1cc(CSc2nc3ccccc3o2)c2ccc(O)c(O)c2o1 | > 25 µM | > 25 µM | > 25 µM | > 25 µM | > 25 µM | > 25 µM
11 | Cc1cc(O)cc2oc(=O)cc(CSc3nc4ccccc4[nH]3)c12 | > 25 µM | > 25 µM | > 25 µM | > 25 µM | > 25 µM | > 25 µM
12 | Cc1nnc(SCc2cc(=O)c3cc(Cl)ccc3o2)o1 | > 25 µM | > 25 µM | > 25 µM | > 25 µM | > 25 µM | > 25 µM
13 | COC(=O)Nc1ccc2c(CSc3nnc(CSc4nc(C)cc(C)n4)s3)cc(=O)oc2c1 | 9.4 µM | 15.9 µM | 3.7 µM | 2.3 µM | 4.6 µM | 2.1 µM
14 | O=c1c2cccc(Cl)c2ncn1CSc1nc2ccccc2s1 | > 25 µM | > 25 µM | > 25 µM | > 25 µM | > 25 µM | > 25 µM
15 | Cc1cc(C)n2nc(SCc3nnc(SCc4cc(=O)oc5c4ccc4ccccc45)s3)nc2n1 | > 25 µM | > 25 µM | > 25 µM | > 25 µM | > 25 µM | > 25 µM
16 | Cc1nnc(SCc2coc3ccc(Cl)cc3c2=O)s1 | 13.4 µM | 9.7 µM | 3.2 µM | 7.6 µM | 2.2 µM | 4.2 µM
17 | Cc1cc(C)n2nc(SCc3nnc(SCc4coc5ccccc5c4=O)n3N)nc2n1 | > 25 µM | > 25 µM | 3.6 µM | 1.9 µM | 3 µM | 7.1 µM
18 | Cc1cc(O)cc2oc(=O)cc(CSc3nc4ccccc4o3)c12 | > 25 µM | > 25 µM | > 25 µM | > 25 µM | > 25 µM | > 25 µM

Row | Structure (SMILES) | IC50 (MCF7) | IC50 (HeLa) | IC50 (SW480) | IC50 [1] | IC50 [2] | IC50 (HEp-2)
19 | Cc1ccc2oc(CSc3nc4nc(C)cc(C)n4n3)cc(=O)c2c1 | > 25 µM | > 25 µM | > 25 µM | > 25 µM | > 25 µM | > 25 µM
20 | Nc1nnc(SCc2cc(=O)c3cc(Cl)ccc3o2)s1 | > 25 µM | > 25 µM | > 25 µM | > 25 µM | > 25 µM | > 25 µM
21 | Cc1cc(C)n2nc(SCc3cc(=O)c4cc(Cl)ccc4o3)nc2n1 | > 25 µM | > 25 µM | > 25 µM | > 25 µM | > 25 µM | > 25 µM
22 | Nc1nc(SCc2coc3ccccc3c2=O)n[nH]1 | > 25 µM | > 25 µM | 21.4 µM | 16.9 µM | 8.3 µM | 21.3 µM
23 | Cc1ccc2oc(CSc3nnc(C)s3)cc(=O)c2c1 | > 25 µM | > 25 µM | > 25 µM | > 25 µM | > 25 µM | > 25 µM
24 | Cc1cc(C)n2nc(SCn3cnc4ccccc4c3=O)nc2n1 | > 25 µM | > 25 µM | > 25 µM | > 25 µM | > 25 µM | > 25 µM
25 | O=c1[nH]cc(F)c(=O)[nH]1 [FLUOROURACIL] | 3.6 µM | 3.4 µM | – | 18.6 µM | – | –
26 | Cc1cc(O)cc2oc(=O)cc(CSc3nc4ccccc4s3)c12 | > 25 µM | > 25 µM | > 25 µM | > 25 µM | > 25 µM | > 25 µM
27 | O=c1cc(SCn2cnc3c(Cl)cccc3c2=O)sc2ccccc12 | > 25 µM | > 25 µM | > 25 µM | > 25 µM | > 25 µM | > 25 µM
28 | Cc1cc(C)n2nc(SCc3cc(=O)c4ccccc4o3)nc2n1 | > 25 µM | > 25 µM | > 25 µM | > 25 µM | > 25 µM | > 25 µM
29 | Cc1nnc(SCc2cc(=O)c3ccccc3o2)s1 | > 25 µM | > 25 µM | > 25 µM | > 25 µM | > 25 µM | > 25 µM
30 | O=c1c(CSc2nc3ccccc3o2)coc2ccccc12 | 4.8 µM | > 25 µM | 3.2 µM | 5.3 µM | 1.4 µM | 2.7 µM
31 | Cc1cc(C)n2nc(SCc3nnc(SCc4coc5ccccc5c4=O)s3)nc2n1 | 9.5 µM | > 25 µM | 1.5 µM | 2.5 µM | 1.1 µM | 5.3 µM
32 | Nc1nnc(SCn2cnc3ccccc3c2=O)s1 | > 25 µM | > 25 µM | > 25 µM | > 25 µM | > 25 µM | > 25 µM
33 | Cc1ccc2oc(CSc3nc(C)cc(C)n3)cc(=O)c2c1 | > 25 µM | > 25 µM | > 25 µM | > 25 µM | > 25 µM | > 25 µM
34 | COC(=O)Nc1ccc2c(CSc3nc(C)cc(C)n3)cc(=O)oc2c1 | 9.9 µM | 14.3 µM | 13.2 µM | 8.2 µM | 19 µM | 8 µM
35 | Cc1nnc(SCc2cc(=O)c3cc(Cl)ccc3o2)s1 | > 25 µM | > 25 µM | > 25 µM | > 25 µM | > 25 µM | > 25 µM
36 | Cc1nnc(Sc2coc3ccccc3c2=O)s1 | > 50 µM | > 50 µM | > 50 µM | > 50 µM | > 50 µM | > 50 µM
